# Active and inactive are the calls of the source. No cut-off for these calls is given here.
# Target: T1, Signal transducer and activator of transcription 1-alpha/beta (Homo sapiens) (UniProt P42224)
# T1 sequence (whole entry): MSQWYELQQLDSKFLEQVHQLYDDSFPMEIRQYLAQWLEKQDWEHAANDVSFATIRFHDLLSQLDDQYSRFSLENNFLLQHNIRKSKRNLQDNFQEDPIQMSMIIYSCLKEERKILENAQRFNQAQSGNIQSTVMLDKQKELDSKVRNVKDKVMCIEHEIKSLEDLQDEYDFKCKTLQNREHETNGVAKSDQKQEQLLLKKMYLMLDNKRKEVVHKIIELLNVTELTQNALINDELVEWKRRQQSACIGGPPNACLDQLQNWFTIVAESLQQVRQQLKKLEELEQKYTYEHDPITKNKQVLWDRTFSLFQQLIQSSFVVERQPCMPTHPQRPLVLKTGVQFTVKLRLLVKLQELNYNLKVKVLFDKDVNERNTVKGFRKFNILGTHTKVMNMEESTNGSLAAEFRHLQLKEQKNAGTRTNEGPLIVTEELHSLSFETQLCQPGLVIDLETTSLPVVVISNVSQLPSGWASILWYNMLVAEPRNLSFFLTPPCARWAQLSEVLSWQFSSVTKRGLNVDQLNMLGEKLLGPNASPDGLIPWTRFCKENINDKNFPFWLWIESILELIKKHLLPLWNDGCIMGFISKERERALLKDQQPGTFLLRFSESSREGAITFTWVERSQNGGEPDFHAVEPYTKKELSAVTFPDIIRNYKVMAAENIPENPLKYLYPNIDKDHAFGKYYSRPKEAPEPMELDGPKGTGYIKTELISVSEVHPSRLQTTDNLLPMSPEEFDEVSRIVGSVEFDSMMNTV
# Experiment: (§1) Inhibition of STAT1 dimer DNA binding activity after 30 mins
# Format: functional
row,Structure (SMILES),Activity
1,CC(C)C[C@H](NC(=O)[C@H](Cc1ccc(OP(=O)(O)O)cc1)NC(=O)c1ccc(C#N)cc1)C(=O)NCc1cccnc1,inactive
2,COC(=O)[C@H](CC(C)C)NC(=O)[C@H](Cc1ccc(OP(=O)(O)O)cc1)NC(=O)c1ccc(C#N)cc1,inactive
3,Cc1cccc(NC(=O)[C@H](CC(C)C)NC(=O)[C@H](Cc2ccc(OP(=O)(O)O)cc2)NC(=O)c2ccc(C#N)cc2)c1,inactive

# Target: T2, Signal transducer and activator of transcription 1-alpha/beta (Homo sapiens, UniProt P42224)
# T2 sequence (P42224 whole entry): T1 sequence (whole entry)
# Experiment: as §1
# Format: functional
row,Structure (SMILES),IC50
1,CC(C)C[C@H](NC(=O)[C@H](Cc1ccc(OP(=O)(O)O)cc1)NC(=O)c1ccc(C#N)cc1)C(=O)Nc1ccccc1,380 µM
2,CC(C)CNC(=O)[C@H](CC(C)C)NC(=O)[C@H](Cc1ccc(OP(=O)(O)O)cc1)NC(=O)c1ccc(C#N)cc1 (stereo in doubt; form 1),760 µM
3,CC(C)C[C@H](NC(=O)[C@H](Cc1ccc(OP(=O)(O)O)cc1)NC(=O)c1ccc(C#N)cc1)C(=O)NCc1ccccc1,760 µM
4,CC(C)C[C@H](NC(=O)[C@H](Cc1ccc(OP(=O)(O)O)cc1)NC(=O)c1ccc(C#N)cc1)C(=O)NCCCO,210 µM
5,CC(C)C[C@H](NC(=O)[C@H](Cc1ccc(OP(=O)(O)O)cc1)NC(=O)c1ccc(C#N)cc1)C(=O)NCc1ccncc1,402 µM
6,CC(C)CNC(=O)[C@H](CC(C)C)NC(=O)[C@H](Cc1ccc(OP(=O)(O)O)cc1)NC(=O)c1ccc(C#N)cc1 (stereo in doubt; form 2),250 µM
7,CC(C)C[C@H](NC(=O)[C@H](Cc1ccc(OP(=O)(O)O)cc1)NC(=O)c1ccc(C#N)cc1)C(=O)NC1CCCCC1,605 µM
8,COc1cccc(NC(=O)[C@H](CC(C)C)NC(=O)[C@H](Cc2ccc(OP(=O)(O)O)cc2)NC(=O)c2ccc(C#N)cc2)c1,560 µM

# Target: Signal transducer and activator of transcription 3 (Homo sapiens, UniProt P40763)
# Experiment: Inhibition of STAT3 dimer DNA binding activity after 30 mins
# Signal transducer and activator of transcription 3, sequence (P40763 whole entry): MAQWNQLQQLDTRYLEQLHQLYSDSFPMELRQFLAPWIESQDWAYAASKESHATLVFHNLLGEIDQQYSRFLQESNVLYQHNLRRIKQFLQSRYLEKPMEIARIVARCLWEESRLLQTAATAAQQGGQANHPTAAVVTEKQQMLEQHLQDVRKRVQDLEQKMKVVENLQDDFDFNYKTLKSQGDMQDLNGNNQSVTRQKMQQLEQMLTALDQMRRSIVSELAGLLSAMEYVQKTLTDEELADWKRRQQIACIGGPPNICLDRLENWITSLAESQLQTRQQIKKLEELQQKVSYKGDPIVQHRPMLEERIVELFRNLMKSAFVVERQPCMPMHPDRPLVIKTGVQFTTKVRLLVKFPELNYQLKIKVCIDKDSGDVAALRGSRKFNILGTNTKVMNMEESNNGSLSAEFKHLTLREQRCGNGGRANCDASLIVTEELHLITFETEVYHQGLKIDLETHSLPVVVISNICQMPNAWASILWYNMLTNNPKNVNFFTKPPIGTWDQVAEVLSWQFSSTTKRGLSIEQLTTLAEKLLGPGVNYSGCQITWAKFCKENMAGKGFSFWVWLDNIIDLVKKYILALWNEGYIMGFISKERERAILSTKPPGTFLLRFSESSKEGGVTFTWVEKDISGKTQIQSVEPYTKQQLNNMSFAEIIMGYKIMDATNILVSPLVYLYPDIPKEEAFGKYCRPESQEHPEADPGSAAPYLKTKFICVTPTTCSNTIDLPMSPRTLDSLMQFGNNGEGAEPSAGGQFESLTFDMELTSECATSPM
Structure (SMILES),IC50,Activity
CC(C)C[C@H](NC(=O)[C@H](Cc1ccc(OP(=O)(O)O)cc1)NC(=O)c1ccc(C#N)cc1)C(=O)Nc1ccccc1,310 µM,–
CC(C)C[C@H](NC(=O)[C@H](Cc1ccc(OP(=O)(O)O)cc1)NC(=O)c1ccc(C#N)cc1)C(=O)NCc1cccnc1,–,inactive
CC(C)CNC(=O)[C@H](CC(C)C)NC(=O)[C@H](Cc1ccc(OP(=O)(O)O)cc1)NC(=O)c1ccc(C#N)cc1 (stereo in doubt; form 1),58 µM,–
CC(C)C[C@H](NC(=O)[C@H](Cc1ccc(OP(=O)(O)O)cc1)NC(=O)c1ccc(C#N)cc1)C(=O)NCc1ccccc1,800 µM,–
COC(=O)[C@H](CC(C)C)NC(=O)[C@H](Cc1ccc(OP(=O)(O)O)cc1)NC(=O)c1ccc(C#N)cc1,–,inactive
CC(C)C[C@H](NC(=O)[C@H](Cc1ccc(OP(=O)(O)O)cc1)NC(=O)c1ccc(C#N)cc1)C(=O)NCCCO,620 µM,–
CC(C)C[C@H](NC(=O)[C@H](Cc1ccc(OP(=O)(O)O)cc1)NC(=O)c1ccc(C#N)cc1)C(=O)NCc1ccncc1,123 µM,–
Cc1cccc(NC(=O)[C@H](CC(C)C)NC(=O)[C@H](Cc2ccc(OP(=O)(O)O)cc2)NC(=O)c2ccc(C#N)cc2)c1,–,inactive
CC(C)CNC(=O)[C@H](CC(C)C)NC(=O)[C@H](Cc1ccc(OP(=O)(O)O)cc1)NC(=O)c1ccc(C#N)cc1 (stereo in doubt; form 2),74 µM,–
CC(C)C[C@H](NC(=O)[C@H](Cc1ccc(OP(=O)(O)O)cc1)NC(=O)c1ccc(C#N)cc1)C(=O)NC1CCCCC1,58 µM,–
COc1cccc(NC(=O)[C@H](CC(C)C)NC(=O)[C@H](Cc2ccc(OP(=O)(O)O)cc2)NC(=O)c2ccc(C#N)cc2)c1,31 µM,–
